In experiment [1] the test system is C. elegans worms in 200 mM paraquat (PQ). As to the kind of experiment: Paraquat survival assay. The class given is in vivo. The settings on record: 200 mM PQ. The protocol:
C. elegans strains were grown at 21° C. on nematode growth media (NGM) agar plates containing diamines or vehicle as a control. The NGM agar plates were prepared as described in L. Livshits, E. Gross, A method for measuring sulfide toxicity in the nematode Caenorhabditis elegans, MethodsX 4 (2017) 250-255. A suspension of 3 g sodium chloride (NaCl), 20 g Bacto agar, and 2.5 g of Bacto peptone in 1 L of double distilled water (DDW) was mixed and autoclaved. Then, the medium was cooled to 55° C. and supplemented with 1 ml of 100 mM CaCl2), 1 ml of 100 mM MgSO4, 25 ml of 1 M potassium phosphate buffer pH 6, and 1 ml of 5 mg/ml cholesterol (the cholesterol was dissolved in ethanol). Diamines or DDW (vehicle) were added to the NGM-agar solution. For RNAi NGM-agar plates, Isopropyl β-D-1-thiogalactopyranoside (IPTG) and ampicillin were added to a final concentration of 1 mM and 100 μg/ml, respectively. The NGM-agar solution was thoroughly vortex mixed and immediately poured into 35 mm petri dish (4 ml per plate). NGM-plates were covered with aluminum foil and dried for 24 h at room temperature (RT). 24 h before the experiment, plates were seeded with 100 μl bacteria (OD600=0.6, OP50 or HT115(DE3)). The seeded plates were covered with aluminum foil and dried for 24 h at RT.
To get synchronized C. elegans larvae, the method described in W. B. Wood, The Nematode Caenorhabditis Elegans, Cold Spring Harbor Laboratory 1988, was performed. In brief, hypochlorite/NaOH solution was made by mixing 1 ml of 5% solution of sodium hypochlorite, 800 μl of 2.5 N NaOH and 2.2 ml DDW to final concentrations of 0.5 N NaOH and 1.25% sodium hypochlorite. M9 buffer was made by dissolving 3 g KH2PO4, 6 g Na2HPO4, 5 g NaCl and 1 ml of MgSO4 from 1M stock in 1 litter of DDW. The solution pH was adjusted to 7 and sterilizes by filtration (with a 0.2 µm filter bottle). Gravid hermaphrodites was washed from the NGM plates into a 15 ml tube with M9 buffer and centrifuged for 2 min at 900×g, RT. Liquid was removed until 2 ml worms' suspension was left and added 2 ml of hypochlorite/NaOH solution. A 5 ml syringe with a 21-gauge needle was used to aspirate the worm suspension back and forth several times. After 3 min it was observed the state of the worms using a dissecting stereoscope. At this stage, approximately 50% of worms should appear broken and many of the embryos should float in the solution. The embryos were immediately sedimented using centrifugation (1690×g for 2 min) and carefully removed the supernatant and add 10 ml of M9 buffer. This washing step was repeated three additional times. The supernatant was removed until 2 ml remains and rotated the tube for 16 h at RT. The hatched L larvae were collected by centrifugation (1690×g for 3 min) and put ˜80 L in each seeded NGM assay plate. Grow the L1 (Day 1) for 3 days until they become young adults (Day 3).

Experiment [2] deals with dct-1(tm376) mutants / dct-1 RNAi worms. As to the kind of experiment: Paraquat survival assay in dct-1 deletion mutant or RNAi knockdown worms. The class given is in vivo, C. elegans. The method, then: (§1) FIGS. 9A-9D show the protective activity of 1,8-Diaminooctane is mitophagy-dependent. (FIG. 9A) is a schematic illustration of the mitophagy pathway in C. elegans. Survival curves presenting the effect of dct-1 and pink-1 deletion mutations (FIG. 9B, FIG. 9C) or RNAi knockdowns (FIG. 9D) on worms' viability in 200 mM PQ at indicated time points. Statistical analysis on PQ survival curves were performed using the log-rank (Mantel-Cox) test with Prism 7 software. The plots represent the average of six independent experiments. The minimum number of worms examined for each experimental condition is 133.
(§2) In the first one, the effect of 1,8-Diaminooctane on the survival of dct-1 and pink-1 mutants in PQ was investigated. DCT-1 is an orthologue of the mammalian NIX/BNIP3L and BNIP3 that act as mitophagy receptors, and PINK-1 is a mitochondrial phosphatase and tensin (PTEN)-induced kinase 1 which has a critical function in mitophagy (see K. Palikaras, E. Lionaki, N. Tavernarakis, Coordination of mitophagy and mitochondrial biogenesis during ageing in C. elegans, Nature 521 (7553) (2015) 525-8; and FIG. 3A). It was hypothesized that if mitophagy is essential for the protective effect of 1,8-Diaminooctane, then dct-1 and pink-1 mutants will become sensitive to PQ following treatment. […] The second experiment that was performed was an RNAi experiment. Here, dct-1 and pink-1 were selectively knocked down using RNAi. The RNAi results recapitulated the one of the mutant experiments ([…]). […] Importantly, the RNAi phenotype was less strong compared to the one observed with the deletion mutants. […] The difference between the results could be due to incomplete suppression of dct-1 and pink-1 in the RNAi treated worms. Together, our results verify that 1,8-Diaminooctane protects against oxidative stress by activating mitophagy.

For experiment [3], the system named is pink-1(tm1779) mutants / pink-1 RNAi worms. As to the kind of experiment: Paraquat survival assay in pink-1 deletion mutant or RNAi knockdown worms. It is filed as in vivo, C. elegans. The protocol:
as §1, §2

The test system of the next experiment is C. elegans. Nature of the experiment: Off-food speed measurements. The settings on record: 4 mM, aged worms, untreated worms declined significantly. The class given is in vivo. The method, then:
Bar graphs presenting the speed of 3 and 11 days post L1 wild-type worms that were treated with 4 mM 1,8-Diaminooctane or with vehicle as a control. The measurements of speed were performed in the absence of food (n=6 assays performed over at least 3 days). Asterisks indicate significance for comparisons with control worms (day 11). **p<0.01, two-way ANOVA with Bonferroni post-test. NS, Not significant. Error bars indicate SEM.
For speed-imaging experiments, low-peptone NGM agar plates were used. These plates were prepared as described above apart from the of Bacto peptone concentration that was decreased to 0.13 g/L and the use of 60 mm petri dished (instead of 35 mm dishes). […] In brief, eight synchronized worms (age 3 or 11 post-L1) were put (for 30 min) in a drop of M9 buffer to clean them from external and internal bacteria. During the 30 min the M9 buffer was replaced twice. After 30 min, the worms were placed at the center of a 17 mm diameter copper ring on an unseeded low-peptone plate. Recording was started after 5 min acclimation time. The worms were recorded for 10 min at 0.5 frames/s, using a Q-Imaging MicroPublisher 5.0 RTV Microscope Camera mounted onto an Olympus SZ61 stereo microscope. A custom-written MATLAB software was used to analyze the speed. For each treatment, at least 48 animals in 6 independent assays were measured.

[4] abbreviates: compared to control worms that did not get the treatment, p<0.0001.
Where [5] appears, read: compared to treated wild-type worms, 200 mM PQ, p<0.0001.
Where [6] appears, read: compared to worms treated with mock RNAi (empty vector).

These results are taken from US20210253511A1, “COMPOUNDS AND USES FOR THE TREATMENT AND PREVENTION OF DISEASES AND CONDITIONS ASSOCIATE WITH OR AGGREVATED BY IMPARED MITOPHAGY” (Yissum Research Development Company of The Hebrew …, priority 2018, published 2021).

The structures appear in SMILES notation. Entries after “also recorded” stand apart in the source; their conditions may differ.

Consider `NCCCCCCCCN` [1,8-Diaminooctane], for which the “survival of worms in paraquat” value is recorded as “increase the survival of worms significantly; also recorded: significantly increases the resistance to paraquat toxicity in a dose-dependent manner” in experiment [1] (0.0625, 0.25, 1 and 4 mM (all treatments), L1 to young adult (~48 h), vs distilled-water control, log-rank p<0.0001); “best protection” in experiment [1] (compound at 4 mM, vs control worms); “significantly improved the survival of worms in PQ” in experiment [1] (tested at 0.0625 mM and 0.25 mM, not split). The “survival in PQ of treated worms, RNAi against dct-1” value in experiment [2] (setting [4]) was “significantly higher than control worms”. Besides, the “resistance to PQ after treatment, dct-1(tm376) mutants” value in experiment [2] (setting [5]) is recorded as “significantly less resistant to PQ”. Besides, the “protective effect in PQ, RNAi against dct-1” value in experiment [2] (setting [6]) was “significantly lesser”. Also, the “survival in PQ of treated worms, RNAi against pink-1” value in experiment [3] (setting [4]) was “significantly higher than control worms”. Also, the “resistance to PQ after treatment, pink-1(tm1779) mutants” value in experiment [3] (setting [5]) is on record as “significantly less resistant to PQ”. Further, in experiment [3] (setting [6]), the “protective effect in PQ, RNAi against pink-1” value is reported as “significantly lesser”. The “speed (off food), day 11 post L1” value in the experiment on C. elegans was “remained high and was similar to day 3”; in the experiment with C. elegans (listed as 1,8-diaminooctane) it was “no change in the speed”.
